Drawing on patent US20250011288A1 (BRISTOL-MYERS SQUIBB COMPANY, priority 2021, published 2025), this text covers EC50 for 19 compounds.

The term EC50 denotes the midpoint of the concentration-response curve. Low readings indicate an effect from little substance, high ones a need for much substance.

The target in this test is T1, human RXFP1 (Homo sapiens, UniProt Q9HBX9).
T1 construct: expressed in transfected cells
T1 sequence (Q9HBX9 1-757): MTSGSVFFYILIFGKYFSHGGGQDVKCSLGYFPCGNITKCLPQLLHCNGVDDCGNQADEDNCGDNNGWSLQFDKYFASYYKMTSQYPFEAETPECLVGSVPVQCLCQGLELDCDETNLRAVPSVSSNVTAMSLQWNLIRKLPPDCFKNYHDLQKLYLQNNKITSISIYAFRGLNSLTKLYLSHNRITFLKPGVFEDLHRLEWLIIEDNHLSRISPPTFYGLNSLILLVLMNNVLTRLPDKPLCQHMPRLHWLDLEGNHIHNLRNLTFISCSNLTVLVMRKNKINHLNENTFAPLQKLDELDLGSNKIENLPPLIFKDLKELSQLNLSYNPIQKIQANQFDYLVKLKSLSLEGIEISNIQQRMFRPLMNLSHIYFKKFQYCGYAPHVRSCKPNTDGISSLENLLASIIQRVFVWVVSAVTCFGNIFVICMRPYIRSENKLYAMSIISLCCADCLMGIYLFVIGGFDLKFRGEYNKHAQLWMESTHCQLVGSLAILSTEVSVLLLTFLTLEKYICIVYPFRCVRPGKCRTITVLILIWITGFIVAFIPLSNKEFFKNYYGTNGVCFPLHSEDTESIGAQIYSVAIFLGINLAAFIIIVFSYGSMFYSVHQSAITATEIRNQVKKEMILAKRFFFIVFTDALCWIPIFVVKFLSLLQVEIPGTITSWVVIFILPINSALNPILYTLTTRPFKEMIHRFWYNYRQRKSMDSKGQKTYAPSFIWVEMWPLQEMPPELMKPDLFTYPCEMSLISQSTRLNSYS
Kind of test: human RXFP1 (hRXFP1) HEK293 cAMP assay (HTRF). Type of test: cell-based. As to conditions: HEK293 cells stably expressing human RXFP1, 30 min at room temperature. Put shortly: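 Intracellular cAMP was quantified by HTRF after a 30 min room-temperature exposure of hRXFP1-HEK293 cells (1500/well) to compound at 0.010 nM–50 µM final, 2% DMSO. Buffer was HBSS with 20 mM HEPES, 0.05% BSA and 0.5 mM IBMX; values came from a 4-parameter logistic fit.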
Take `COc1ncc(C2=NO[C@@H]3C[C@H](CO)CN23)cc1C(=O)N[C@@H]1C2CCC(/C2=C/C2CC2)[C@@H]1C(=O)Nc1ccc(F)c(C(F)(F)F)c1` (stereo partly drawn) [Example 132, N-((1R,2R,3S,4R,Z)-7-(cyclopropyl-methylene)-3-((4-fluoro-3-(trifluoromethyl)phenyl)carbamoyl)bicyclo[2.2.1]heptan-2-yl)-5-((6S,7aR)-6-(hydroxymethyl)-5,6,7,7a-tetrahydropyrrolo [1,2-d][1,2,4]oxadiazo 1-3-yl)-2-methoxynicotinamide]: a half-maximal effect (EC50) was put at 1.8 nM.

With `COc1cnc(-c2cc([C@H](OC(=O)Nc3ccccc3)C(F)(F)F)ccc2F)cc1C(=O)N[C@@H]1C2CCC(/C2=C/C(F)(F)F)[C@@H]1C(=O)Nc1ccc(F)c(C(F)(F)F)c1` (stereo partly drawn) [Example 38, (1S)-2,2,2-trifluoro-1-14-fluoro-3-(4-{[(2R,3S,7Z)-3-{[4-fluoro-3-(trifluoromethyl)phenyl]carbamoyl}-7-(2.2,2-trifluoroethylidene)bicyclo[2.2.1]heptan-2-yl]carbamoyl}-5-methoxypyridin-2-yl)phenyl]ethyl N-phenylcarbamate], a half-maximal effect (EC50) was put at 63 nM.

In the case of `COc1ncc(C2=NOC3CN(CCS(C)(=O)=O)CC23)cc1C(=O)N[C@H]1[C@@H](C(=O)Nc2ccc(F)c(C(F)(F)F)c2)[C@H]2CC[C@@H]1/C2=C\C1CC1` (stereo partly drawn) [Example 178, N-[(1R,2R,3S,4R, 7Z)-7-(cyclopropyl-methylidene)-3-{[4-fluoro-3-(trifluoromethyl)phenyl]carbamoyl}bicyclo[2.2.1]heptan-2-yl]-5-[5-(2-methanesulfonylethyl)-3aH,4H,5H,6H, 6aH-pyrrolo[3,4-d][1,2]oxazol-3-yl]-2-methoxypyridine-3-carboxamide], the EC50 was determined as 1.6 nM.

For `COc1ncc(C2=NOC3COCC23)cc1C(=O)N[C@H]1[C@@H](C(=O)N[C@H](C)C2(C)CC2)[C@H]2CC[C@@H]1/C2=C\c1csc(C(F)F)n1` (stereo partly drawn) [Example 100, N-((1R,2R,3S,4R,Z)-7-((2-(difluoromethyl)thiazol-4-yl)methylene)-3-(((R)-1-(1-methylcyclopropyl)ethyl)carbamoyl)bicyclo[2.2.1]heptan-2-yl)-2-methoxy-5-(3a,4,6,6a-tetrahydrofuro[3,4-d]isoxazol-3-yl)nicotinamide], the EC50 stood at 3.4 nM.

As for `COc1cnc(-c2cc([C@H](OC(=O)Nc3ccccc3)C(F)(F)F)ccc2F)nc1C(=O)N[C@@H]1C2CCC(/C2=C/C(F)(F)F)[C@@H]1C(=O)Nc1ccc(F)c(C(F)(F)F)c1` (stereo partly drawn) [Example 36, (1S)-2.2,2-trifluoro-1-[4-fluoro-3-(4-{[(2R,3S,7Z)-3-{[4-fluoro-3-(trifluoromethyl)phenyl]carbamoyl}-7-(2,2,2-trifluoroethylidene)bicyclo[2. 2.1]heptan-2-yl]carbamoyl}-5-methoxypyrimidin-2-yl)phenyl]ethyl N-phenylcarbamate], a half-maximal response (EC50) required 63 nM.

As for `Cn1c(=O)c(C(=O)N[C@@H]2C3CCC(/C3=C/C3CC3)[C@@H]2C(=O)Nc2ccc(F)c(C(F)(F)F)c2)cc2ccccc21` (stereo partly shown) [Example 19], the EC50 came to 4000 nM.

In turn, `COc1ncc(-c2cc(C(=O)O)ccc2F)nc1C(=O)N[C@@H]1C2CCC(C2=C(C)C)[C@@H]1C(=O)Nc1ccc(F)c(C(F)(F)F)c1` (stereo partly drawn) [Example 24, 4-Fluoro-3-(6-{[(2R,3S)-3-{[4-fluoro-3-(trifluoromethyl)phenyl]carbamoyl}-7-(propan-2-ylidene)bicyclo [2.2.1]heptan-2-yl]carbamoyl}-5-methoxypyrazin-2-yl)benzoic acid] yielded an EC50 of 1000 nM.

In turn, `CNC(=O)O[C@@H](c1ccc(F)c(-c2cnc(OC)c(C(=O)N[C@@H]3C4CCC(/C4=C/C4CC4)[C@@H]3C(=O)Nc3ccc(F)c(C(F)(F)F)c3)c2)c1)C(F)(F)F` (stereo partly drawn) [Example 182, (1S)-1-[3-(5-{[(2R,3S,7Z)-7-(cyclopropyl-methylidene)-3-{[4-fluoro-3-(trifluoromethyl)phenyl]carbamoyl}bicyclo[2.2.1]heptan-2-yl]carbamoyl}-6-methoxypyridin-3-yl)-4-fluorophenyl]-2,2,2-trifluoroethyl N-methylcarbamate] gave an EC50 of 2.6 nM.

Compound `COc1ncc(C2=NOC3CC(CO)CC23)cc1C(=O)N[C@@H]1C2CCC(/C2=C/C2CC2)[C@@H]1C(=O)Nc1ccc(F)c(C(F)(F)F)c1` (single isomer, unassigned) [Example 70] registered a concentration for a half-maximal effect (EC50) of 2.3 nM.

`COc1ncc(-c2cc(C(=O)O)ccc2F)cc1C(=O)N[C@@H]1C2CCC(/C2=C/C(F)(F)F)[C@@H]1C(=O)Nc1ccc(F)c(C(F)(F)F)c1` (stereo partly drawn) [Example 28, 4-Fluoro-3-(5-{[(2R,3S,7Z)-3-{[4-fluoro-3-(trifluoromethyl)phenyl]carbamoyl}-7-(2,2,2-trifluoroethylidene)bicyclo[2. 2.1]heptan-2-yl]carbamoyl}-6-methoxypyridin-3-yl)benzoic acid] returned an EC50 of 34 nM. Against the preceding compound, the EC50 is about 15-fold higher.

In turn, `COc1ncc(C2=NOC3CC(C(O)C(F)(F)F)CC23)cc1C(=O)N[C@H]1[C@@H](C(=O)Nc2ccc(F)c(C(F)(F)F)c2)[C@H]2CC[C@@H]1/C2=C\C1CC1` (stereo partly drawn) [Example 130, N-((1R,2R,3S,4R,Z)-7-(cyclopropylmethylene)-3-((4-fluoro-3-(trifluoromethyl)phenyl)carbamoyl)bicyclo[2.2.1]heptan-2-yl)-2-methoxy-5-(5-(2,2,2-trifluoro-1-hydroxyethyl)-3a,5,6,6a-tetrahydro-4H-cyclopenta[d]isoxazol-3-yl)nicotinamide] yielded a 50% effective concentration (EC50) of 1.2 nM.

`COc1ncc(C2=NOC3CC(CO)CC23)cc1C(=O)N[C@@H]1C2CCC(/C2=C/c2csc(C)n2)[C@@H]1C(=O)N[C@H](C)C1(C)CC1` (stereo partly shown) [Example 99] returned an EC50 of 3.2 nM.

`COc1ncc(C(=O)N2CC(O)C2)cc1C(=O)N[C@H]1[C@@H](C(=O)Nc2ccc(F)c(C(F)(F)F)c2)[C@H]2CC[C@@H]1/C2=C\C1CC1` [Example 75, N-[(1R,2R,3S, 4R,7Z)-7-(cyclopropyl-methylidene)-3-{[4-fluoro-3-(trifluoromethyl)phenyl]carbamoyl}bicyclo[2.2.1]heptan-2-yl]-5-(3-hydroxyazetidine-1-carbonyl)-2-methoxypyridine-3-carboxamide] had an EC50 of 8.1 nM.

Regarding `COc1ncc(C2=NOC3CC(C(O)C(F)(F)F)CC23)cc1C(=O)N[C@H]1[C@@H](C(=O)Nc2ccc(F)c(C(F)(F)F)c2)[C@H]2CC[C@@H]1/C2=C\C1CCC1` (stereo partly drawn) [Example 122, N-((1R,2R,3S,4R,Z)-7-(cyclobutyl-methylene)-3-((4-fluoro-3-(trifluoromethyl)phenyl)carbamoyl)bicyclo[2.2.1]heptan-2-yl)-2-methoxy-5-(5-(2,2,2-trifluoro-1-hydroxyethyl)-3a,5,6,6a-tetrahydro-4H-cyclopenta[d]isoxazol-3-yl)nicotinamide], a half-maximal response (EC50) required 2.6 nM.

Compound `COc1ncc(C(=O)N2CC(S(C)(=O)=O)C2)cc1C(=O)N[C@H]1[C@@H](C(=O)N[C@H](C)C2(C)CC2)[C@H]2CC[C@@H]1/C2=C\C1CC1` [Example 151, N-[(1R,2R,4R,7Z)-7-(cyclopropyl-methylidene)-3-{[(1R)-1-(1-methylcyclopropyl)ethyl]carbamoyl}bicyclo[2.2.1]heptan-2-yl]-5-(3-methanesulfonylazetidine-1-carbonyl)-2-methoxypyridine-3-carboxamide] returned an EC50 of 3.5 nM.

Compound `COc1ncc(C2=NOC3CC(C(N)=O)CC23)cc1C(=O)N[C@H]1[C@@H](C(=O)Nc2ccc(F)c(C(F)(F)F)c2)[C@H]2CC[C@@H]1/C2=C\C1CC1` (single isomer, unassigned) [Example 65] gave an EC50 of 21 nM.

Turning to `COc1cc2c(cc1C(=O)N[C@H]1[C@@H](C(=O)Nc3ccc(F)c(C(F)(F)F)c3)[C@H]3CC[C@@H]1/C3=C\C1CC1)CN(CC(C)(C)O)CC2` [Example 85, N-((1R,2R,3S,4R,Z)-7-(cyclopropylmethylene)-3-((4-fluoro-3-(trifluoromethyl)phenyl)carbamoyl)bicyclo[2.2.1]heptan-2-yl)-2-(2-hydroxy-2-methylpropyl)-6-methoxy-1,2,3,4-tetrahydroisoquinoline-7-carboxamide], the EC50 worked out at 200 nM.

In turn, `COc1ncc(C2=NOC3CC(C(OC(=O)Nc4ccccc4)C4CC4)CC23)cc1C(=O)N[C@@H]1C2CCC(/C2=C/C2CCCC2)[C@@H]1C(=O)Nc1ccc(F)c(C(F)(F)F)c1` (stereo partly drawn) [Example 162, [3-(5-{[(2R,3S,7Z)-7-(cyclopentyl-methylidene)-3-{[4-fluoro-3-(trifluoromethyl)phenyl]carbamoyl}bicyclo[2.2.1]heptan-2-yl]carbamoyl}-6-methoxypyridin-3-yl)-3aH,4H,5H,6H, 6aH-cyclopenta[d][1,2]oxazol-5-yl](cyclopropyl) methyl N-phenylcarbamate] displayed an EC50 of 4.6 nM. Against the preceding compound, the EC50 is about 43-fold lower.

Turning to `COc1ncc(C2=NOC3CC(CO)CC23)cc1C(=O)N[C@@H]1C2CCC(/C2=C/C2CC2)[C@@H]1C(=O)Nc1ccc(F)c(C(F)(F)F)c1` (single isomer, unassigned) [Example 68], the concentration giving a half-maximal response (EC50) came out at 130 nM.
